Data published in patent US11780832B2, “Lactivicin compounds, their preparation and use as antibacterial agents” (priority 2021, dated 2023).
In brackets after ≈: the same amount, converted by molar mass.

Columns and labels:
Assay in all cases: MIC, CLSI broth microdilution
Type in all cases: cell-based
[1] = test system: Serratia marcescens SME-2; details: SME2
Description: (§1) Gram-negative and Gram-positive bacterial strains used during the in vitro minimum inhibitory concentration (MIC) determination were obtained either from the American Type Culture Collection (ATCC) or from clinical specimens. All strains were characterized genotypically and the respective antibiotic resistance markers for each strain were identified.
(§2) Isolates were sub-cultured onto appropriate media and stocked in skim milk at −80° C. Following two subcultures from frozen stock, in vitro antimicrobial susceptibility testing was performed using the Clinical and Laboratory Standards Institute (CLSI) broth microdilution method. Briefly, fresh cultures were suspended in culture media to give a final stock inoculum size of 5×10^7 colony forming units per milliliter of broth (CFU/mL). […] 100 μL of the stock solutions were added to the first wells in a 96-well plate and were then diluted using a 2-fold dilution method to give a range of 32-0.025 μg/mL. 100 μL of the bacterial suspensions were then added to the 96-well plates to give a final working inoculum size of 5×10^5 CFU/mL. The final compound concentration range was 16-0.0125 μg/mL. […] MICs for comparator agents were determined using custom-designed, in-house prepared 96-well broth microdilution panels.

[2] = test system: Klebsiella aerogenes VIM-1, SHV-12
Description: as §1, §2

[3] = test system: Escherichia coli CTX-M-15; details: CTXM15
Description: as §1, §2

[4] = test system: Escherichia coli Empty pSMART plasmid
Description: as §1, §2

[5] = test system: Klebsiella oxytoca KPC-2, TEM-1; details: KPC-2, TEM-1, read-out: MIC
Description: as §1, §2

[6] = test system: Escherichia coli Isogenic TEM-26
Description: as §1, §2

[7] = test system: Escherichia coli Isogenic TEM-10
Description: as §1, §2

[8] = test system: Pseudomonas aeruginosa AmpC overexpressed
Description: as §1, §2

[9] = test system: Serratia marcescens AmpC overexpressed
Description: as §1, §2

[10] = test system: Escherichia coli pSMART_Cfreundii_AmpC
Description: as §1, §2

[11] = test system: Citrobacter freundii species complex OXA-181; details: Citrobacter freundii species complex, OXA-181; read-out: MIC
Description: as §1, §2

[12] = test system: Klebsiella pneumoniae OXA-48, SHV-1
Description: as §1, §2

[13] = test system: Klebsiella pneumoniae OXA-163, OXA-1_OXA-30, SHV-1, TEM-1
Description: as §1, §2

[14] = test system: Pseudomonas aeruginosa ATCC 27853; details: ATCC27853
Description: as §1, §2

[15] = test system: Klebsiella pneumoniae KPC-3; details: KPC3, KPC-3, read-out: MIC
Description: as §1, §2

[16] = test system: Acinetobacter baumannii ATCC 19606; details: ATCC19606
Description: as §1, §2

[17] = test system: Escherichia coli ATCC 25922; details: ATCC25922
Description: as §1, §2

[18] = test system: Klebsiella pneumoniae KPC-2; details: KPC2
Description: as §1, §2

[19] = test system: Escherichia coli pSMART_Ecloacae_AmpC
Description: as §1, §2

[20] = test system: Pseudomonas aeruginosa OprD negative
Description: as §1, §2

[21] = test system: Escherichia coli CMY-2; details: CMY2
Description: as §1, §2

[22] = test system: Escherichia coli SHV-12; details: SHV12
Description: as §1, §2

[23] = test system: Klebsiella pneumoniae SHV-12; details: SHV12, SHV-12, read-out: MIC
Description: as §1, §2

[24] = test system: Enterobacter cloacae species complex NDM-1
Description: as §1, §2

| SMILES | MIC [1] [µg/mL] | MIC [2] [µg/mL] | MIC [3] [µg/mL] | MIC [4] [µg/mL] | MIC [5] [µg/mL] | MIC [6] [µg/mL] | MIC [7] [µg/mL] | MIC [8] [µg/mL] | MIC [9] [µg/mL] | MIC [10] [µg/mL] | MIC [11] [µg/mL] | MIC [12] [µg/mL] | MIC [13] [µg/mL] | MIC [14] [µg/mL] | MIC [15] [µg/mL] | MIC [16] [µg/mL] | MIC [17] [µg/mL] | MIC [18] [µg/mL] | MIC [19] [µg/mL] | MIC [20] [µg/mL] | also measured |
| --- | --- | --- | --- | --- | --- | --- | --- | --- | --- | --- | --- | --- | --- | --- | --- | --- | --- | --- | --- | --- | --- |
| CC(C)(O/N=C(\C(=O)N[C@H]1CON(C2(C(=O)O)C[C@H](N3Cc4cc(O)c(O)cc4C3=O)C(=O)O2)C1=O)c1csc(N)n1)C(=O)O (stereo partly drawn) [Cmpd 35, (4S)-2-[(4S)-4-{[(2Z)-2-(2-amino-1,3-thiazol-4-yl)-2-{[(2-carboxypropan-2-yl)oxy]imino}acetyl]amino}-3-oxo-1,2-oxazolidin-2-yl]-4-(5,6-dihydroxy-1-oxo-1,3-dihydro-2H-isoindol-2-yl)-5-oxooxolane-2-carboxylic acid] | 0.25 (≈ 0.385 µM) | 1 (≈ 1.54 µM) | 1 (≈ 1.54 µM) | 0.06 (≈ 0.0925 µM) | 0.0149 (≈ 0.023 µM) | 0.12 (≈ 0.185 µM) | 0.06 (≈ 0.0925 µM) | 2 (≈ 3.08 µM) | 0.5 (≈ 0.771 µM) | 0.5 (≈ 0.771 µM) | 0.25 (≈ 0.385 µM) | 0.03 (≈ 0.0463 µM) | 0.5 (≈ 0.771 µM) | 0.5 (≈ 0.771 µM) | 0.25 (≈ 0.385 µM) | 0.25 (≈ 0.385 µM) | 0.5 (≈ 0.771 µM) | 0.12 (≈ 0.185 µM) | 0.25 (≈ 0.385 µM) | 0.5 (≈ 0.771 µM) | MIC [21]: 8 µg/mL (≈ 12.3 µM); MIC [22]: 1 µg/mL (≈ 1.54 µM); MIC [23]: 0.06 µg/mL (≈ 0.0925 µM); MIC [24]: 1 µg/mL (≈ 1.54 µM) |
| Nc1nc(/C(=N/OC2(C(=O)O)CCC2)C(=O)N[C@H]2CON(C3(C(=O)O)C[C@H](N4C(=O)c5cc(O)c(O)cc5C4=O)C(=O)O3)C2=O)cs1 (stereo partly drawn) [Cmpd 4, (4S)-2-[(4S)-4-{[(2Z)-2-(2-amino-1,3-thiazol-4-yl)-2-{[(1-carboxycyclobutyl)oxy]imino}acetyl]amino}-3-oxo-1,2-oxazolidin-2-yl]-4-(5,6-dihydroxy-1,3-dioxo-1,3-dihydro-2H-isoindol-2-yl)-5-oxooxolane-2-carboxylic acid] | 0.06 (≈ 0.0889 µM) | 1 (≈ 1.48 µM) | 1 (≈ 1.48 µM) | ≤ 0.015 | ≤ 0.015 | 0.06 (≈ 0.0889 µM) | 0.03 (≈ 0.0445 µM) | 1 (≈ 1.48 µM) | 0.12 (≈ 0.178 µM) | 0.12 (≈ 0.178 µM) | 0.06 (≈ 0.0889 µM) | ≤ 0.015 | 0.06 (≈ 0.0889 µM) | 0.25 (≈ 0.371 µM) | 0.03 (≈ 0.0445 µM) | 0.12 (≈ 0.178 µM) | 0.25 (≈ 0.371 µM) | 0.06 (≈ 0.0889 µM) | 0.06 (≈ 0.0889 µM) | 1 (≈ 1.48 µM) | MIC [21]: 2 µg/mL (≈ 2.96 µM); MIC [22]: 1 µg/mL (≈ 1.48 µM); MIC [23]: 0.03 µg/mL (≈ 0.0445 µM); MIC [24]: 0.25 µg/mL (≈ 0.371 µM) |
| Nc1nc(/C(=N/OC2(C(=O)O)CCC(F)(Cl)CC2)C(=O)N[C@H]2CON(C3(C(=O)O)C[C@H](N4C(=O)c5cc(O)c(O)cc5C4=O)C(=O)O3)C2=O)cs1 (stereo partly drawn) [Cmpd 11, (4S)-2-[(4S)-4-{[(2Z)-2-(2-amino-1,3-thiazol-4-yl)-2-{[(1-carboxy-4-chloro-4-fluorocyclohexyl)oxy]imino}acetyl]amino}-3-oxo-1,2-oxazolidin-2-yl]-4-(5,6-dihydroxy-1,3-dioxo-1,3-dihydro-2H-isoindol-2-yl)-5-oxooxolane-2-carboxylic acid] | 0.06 (≈ 0.0795 µM) | 0.12 (≈ 0.159 µM) | 2 (≈ 2.65 µM) | ≤ 0.015 | ≤ 0.015 | 0.03 (≈ 0.0397 µM) | 0.06 (≈ 0.0795 µM) | 2 (≈ 2.65 µM) | 0.06 (≈ 0.0795 µM) | 0.06 (≈ 0.0795 µM) | 0.03 (≈ 0.0397 µM) | ≤ 0.015 | 0.12 (≈ 0.159 µM) | 0.25 (≈ 0.331 µM) | 0.06 (≈ 0.0795 µM) | 0.25 (≈ 0.331 µM) | 0.12 (≈ 0.159 µM) | 0.03 (≈ 0.0397 µM) | 0.06 (≈ 0.0795 µM) | 0.25 (≈ 0.331 µM) | MIC [21]: 1 µg/mL (≈ 1.32 µM); MIC [22]: 2 µg/mL (≈ 2.65 µM); MIC [23]: 0.03 µg/mL (≈ 0.0397 µM); MIC [24]: 2 µg/mL (≈ 2.65 µM) |
| Nc1nc(/C(=N/OC2(C(=O)O)CC3CCC(C2)O3)C(=O)N[C@H]2CON(C3(C(=O)O)C[C@H](N4Cc5cc(O)c(O)cc5C4=O)C(=O)O3)C2=O)cs1 (stereo partly drawn) [Cmpd 30, 3-({(Z)-[1-(2-amino-1,3-thiazol-4-yl)-2-({(4S)-2-[(4S)-2-carboxy-4-(5,6-dihydroxy-1-oxo-1,3-dihydro-2H-isoindol-2-yl)-5-oxooxolan-2-yl]-3-oxo-1,2-oxazolidin-4-yl}amino)-2-oxoethylidene]amino}oxy)-8-oxabicyclo[3.2.1]octane-3-carboxylic acid] | 0.5 (≈ 0.698 µM) | 0.12 (≈ 0.167 µM) | 8 (≈ 11.2 µM) | 1 (≈ 1.4 µM) | 0.03 (≈ 0.0419 µM) | 0.5 (≈ 0.698 µM) | 0.12 (≈ 0.167 µM) | 4 (≈ 5.58 µM) | 0.5 (≈ 0.698 µM) | 0.25 (≈ 0.349 µM) | 0.12 (≈ 0.167 µM) | 0.06 (≈ 0.0837 µM) | 1 (≈ 1.4 µM) | 4 (≈ 5.58 µM) | 0.12 (≈ 0.167 µM) | 0.5 (≈ 0.698 µM) | 1 (≈ 1.4 µM) | 0.03 (≈ 0.0419 µM) | 0.25 (≈ 0.349 µM) | 1 (≈ 1.4 µM) | MIC [21]: 4 µg/mL (≈ 5.58 µM); MIC [22]: 8 µg/mL (≈ 11.2 µM); MIC [23]: 0.25 µg/mL (≈ 0.349 µM); MIC [24]: 4 µg/mL (≈ 5.58 µM) |
| CN1CCC(O/N=C(\C(=O)N[C@H]2CON(C3(C(=O)O)C[C@H](N4C(=O)c5cc(O)c(O)cc5C4=O)C(=O)O3)C2=O)c2csc(N)n2)(C(=O)O)CC1 (stereo partly drawn) [Cmpd 9, 4-({(Z)-[1-(2-amino-1,3-thiazol-4-yl)-2-({(4S)-2-[(4S)-2-carboxy-4-(5,6-dihydroxy-1,3-dioxo-1,3-dihydro-2H-isoindol-2-yl)-5-oxooxolan-2-yl]-3-oxo-1,2-oxazolidin-4-yl}amino)-2-oxoethylidene]amino}oxy)-1-methylpiperidine-4-carboxylic acid] | 0.5 (≈ 0.697 µM) | 0.5 (≈ 0.697 µM) | 4 (≈ 5.57 µM) | 0.12 (≈ 0.167 µM) | 0.03 (≈ 0.0418 µM) | 0.12 (≈ 0.167 µM) | 0.12 (≈ 0.167 µM) | > 16 | 4 (≈ 5.57 µM) | 0.25 (≈ 0.348 µM) | 0.25 (≈ 0.348 µM) | 0.12 (≈ 0.167 µM) | 0.25 (≈ 0.348 µM) | 4 (≈ 5.57 µM) | 0.25 (≈ 0.348 µM) | 2 (≈ 2.79 µM) | 0.5 (≈ 0.697 µM) | 0.25 (≈ 0.348 µM) | 0.25 (≈ 0.348 µM) | > 16 | MIC [21]: 2 µg/mL (≈ 2.79 µM); MIC [22]: 2 µg/mL (≈ 2.79 µM); MIC [23]: 0.12 µg/mL (≈ 0.167 µM); MIC [24]: 8 µg/mL (≈ 11.1 µM) |
| Nc1nc(/C(=N/OC2(C(=O)O)CCOCC2)C(=O)N[C@H]2CON(C3(C(=O)O)C[C@H](N4Cc5cc(O)c(O)cc5C4=O)C(=O)O3)C2=O)cs1 (stereo partly drawn) [Cmpd 29, 4-({(Z)-[1-(2-amino-1,3-thiazol-4-yl)-2-({(4S)-2-[(4S)-2-carboxy-4-(5,6-dihydroxy-1-oxo-1,3-dihydro-2H-isoindol-2-yl)-5-oxooxolan-2-yl]-3-oxo-1,2-oxazolidin-4-yl}amino)-2-oxoethylidene]amino}oxy)oxane-4-carboxylic acid] | 0.25 (≈ 0.362 µM) | 0.25 (≈ 0.362 µM) | 2 (≈ 2.9 µM) | 0.5 (≈ 0.724 µM) | 0.0149 (≈ 0.0216 µM) | 0.03 (≈ 0.0434 µM) | 0.03 (≈ 0.0434 µM) | 2 (≈ 2.9 µM) | 0.25 (≈ 0.362 µM) | 0.25 (≈ 0.362 µM) | 0.12 (≈ 0.174 µM) | 0.03 (≈ 0.0434 µM) | 0.25 (≈ 0.362 µM) | 0.5 (≈ 0.724 µM) | 0.06 (≈ 0.0869 µM) | 0.12 (≈ 0.174 µM) | 0.5 (≈ 0.724 µM) | 0.0149 (≈ 0.0216 µM) | 0.12 (≈ 0.174 µM) | 0.5 (≈ 0.724 µM) | MIC [21]: 2 µg/mL (≈ 2.9 µM); MIC [22]: 2 µg/mL (≈ 2.9 µM); MIC [23]: 0.06 µg/mL (≈ 0.0869 µM); MIC [24]: 4 µg/mL (≈ 5.79 µM) |
